These results are taken from ChEMBL document CHEMBL6127136, “Discovery of 1-(Phenylsulfonyl)-1,2,3,4-tetrahydroquinoline Derivative as Orally Bioavailable and Safe RORγt Inverse Agonists for Potential Treatment of Rheumatoid Arthritis” (J Med Chem, 2024).

Series [1] addresses T1, Nuclear receptor ROR-gamma (Homo sapiens, UniProt P51449).
T1 sequence (P51449 whole entry): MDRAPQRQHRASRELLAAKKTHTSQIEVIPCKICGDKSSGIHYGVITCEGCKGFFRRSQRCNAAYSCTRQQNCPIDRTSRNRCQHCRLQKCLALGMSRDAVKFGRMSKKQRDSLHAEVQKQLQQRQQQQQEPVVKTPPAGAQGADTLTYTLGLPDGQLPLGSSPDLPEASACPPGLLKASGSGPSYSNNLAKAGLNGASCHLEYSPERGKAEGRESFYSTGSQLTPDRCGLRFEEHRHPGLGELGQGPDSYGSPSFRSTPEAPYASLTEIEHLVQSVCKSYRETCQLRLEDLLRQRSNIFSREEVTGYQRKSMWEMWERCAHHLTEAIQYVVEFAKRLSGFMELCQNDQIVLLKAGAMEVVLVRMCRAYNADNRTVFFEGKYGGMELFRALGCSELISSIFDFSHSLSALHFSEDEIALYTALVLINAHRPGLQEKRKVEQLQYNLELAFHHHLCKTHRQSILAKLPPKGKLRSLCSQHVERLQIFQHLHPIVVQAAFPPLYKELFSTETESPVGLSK
As to the kind of experiment: Inverse agonist activity at N-terminal 6-His-tagged/APC-labeled human RORgammat LBD extracted from Escherichia coli assessed as inhibition of europium-labeled SRC-1 recruitment incubated for 3 hrs by TR-FRET analysis. In general terms: Time-resolved FRET reads energy transfer from a long-lived donor to a nearby acceptor.

In series [2] the target is T1, Nuclear receptor ROR-gamma. As to the kind of experiment: Inverse agonist activity at GAL4 DNA-binding domain fused RORgamma (unknown origin) transfected in HEK293T cells co-transfected with GAL4-promoter driven luciferase reporter gene assessed as inhibition of RORgammat transcription incubated for 18 to 20 hrs by plate reader analysis. The format is cell-based.
The next series concerns HUVEC. As to the kind of experiment: Antiproliferative activity against HUVEC cells assessed as inhibition of colony formation at 2 to 8 uM incubated for 7 days by crystal violet staining based light microscopic analysis. It is filed as toxicity, cell-based. Particulars: human, 168 h, dose 2-8 µM, time 7 day.
The test system of the next series is HeLa. Description: Antiproliferative activity against human HeLa cells assessed as inhibition of colony formation at 2 to 8 uM incubated for 7 days by crystal violet staining based light microscopic analysis. As to conditions: 168 h, dose 2-8 µM, time 7 day. It is filed as toxicity, cell-based.
Series [3] concerns Mus musculus. As to the kind of experiment: Antiarthritic activity in chicken type II collagen-induced arthritis DBA/1 mouse model assessed as reduction in fore paw thickness at 20 mg/kg/day, po administered for 2 weeks by H and E staining based analysis. It is filed as functional, organism-based.
The nature of series [4]: Toxicity in chicken type II collagen-induced arthritis DBA/1 mouse model assessed as signs of thymic enlargement at 20 mg/kg/day, po administered for 2 weeks by H and E staining based analysis. It is filed as organism-based. Particulars: in vivo, 336 h.
Series [5] is described as follows: Toxicity in chicken type II collagen-induced arthritis DBA/1 mouse model assessed as increase in thymic cortex to medulla ratio at 20 mg/kg/day, po administered for 2 weeks by H and E staining based analysis. The format is organism-based. Particulars: in vivo, 336 h.
Series [6] deals with Mus musculus. As to the kind of experiment: Antiarthritic activity in chicken type II collagen-induced arthritis DBA/1 mouse model assessed as reduction in fore paw swelling at 20 mg/kg/day, po administered for 2 weeks by H and E staining based analysis. The format is functional, organism-based.
For series [7], the system named is Mus musculus. As to the kind of experiment: Antiarthritic activity in chicken type II collagen-induced arthritis DBA/1 mouse model assessed as reduction in hind paw erythema at 20 mg/kg/day, po administered for 2 weeks by H and E staining based analysis. The format is functional, organism-based.
Series [8] deals with Mus musculus. As to the kind of experiment: Antiarthritic activity in chicken type II collagen-induced arthritis DBA/1 mouse model assessed as reduction in fore paw erythema at 20 mg/kg/day, po administered for 2 weeks by H and E staining based analysis. It is filed as functional, organism-based.
The nature of series [9]: Toxicity in chicken type II collagen-induced arthritis DBA/1 mouse model assessed as morphological changes in thymocytes at 20 mg/kg/day, po administered for 2 weeks by H and E staining based analysis. It is filed as organism-based. As to conditions: in vivo, 336 h.
Series [10] concerns Mus musculus. As to the kind of experiment: Antiarthritic activity in chicken type II collagen-induced arthritis DBA/1 mouse model assessed as reduction in clinical score at 20 mg/kg/day, po measured after 42 days. It is filed as functional, organism-based. Particulars: time 42.0 day.
The nature of series [11]: Toxicity in chicken type II collagen-induced arthritis DBA/1 mouse model assessed as behavioral abnormalities at 20 mg/kg/day, po measured after 42 days. It is filed as organism-based. As to conditions: in vivo, 1008 h, time 42 day.
In series [12] the test system is Mus musculus. As to the kind of experiment: Antiarthritic activity in chicken type II collagen-induced arthritis DBA/1 mouse model assessed as improvement in arthritic symptoms at 20 mg/kg/day, po administered for 2 weeks by H and E staining based analysis. It is filed as functional, organism-based.
Series [13] can be described thus: Toxicity in chicken type II collagen-induced arthritis DBA/1 mouse model assessed as signs of lymphoma at 20 mg/kg/day, po administered for 2 weeks by H and E staining based analysis. It is filed as organism-based. As to conditions: in vivo, 336 h.
A short description of series [14]: Toxicity in chicken type II collagen-induced arthritis DBA/1 mouse model assessed as body weight loss at 20 mg/kg/day, po measured after 42 days. It is filed as organism-based. As to conditions: in vivo, 1008 h, time 42 day.
The subject of series [15] is Mus musculus. Description: Antiarthritic activity in chicken type II collagen-induced arthritis DBA/1 mouse model assessed as reduction in hind paw swelling at 20 mg/kg/day, po administered for 2 weeks by H and E staining based analysis. The format is functional, organism-based.
Series [16] deals with Mus musculus. Description: Antiarthritic activity in chicken type II collagen-induced arthritis DBA/1 mouse model assessed as reduction in hind paw thickness at 20 mg/kg/day, po administered for 2 weeks by H and E staining based analysis. The format is functional, organism-based.

Calls of active or inactive are those of the source. The calls are words filed in the database; no cut-off is given here.

With `CCc1ccc2c(c1)CCC(C)(C)N2S(=O)(=O)c1ccc(OCC2CCOCC2)c(CO)c1`, the IC50 (as a rule, the concentration that inhibits the measured activity by half) in [1] was found to be 310 nM. With `CC[C@H]1CCc2cc(C(C)C)ccc2N1S(=O)(=O)c1ccc(OCC2CCOCC2)c(CO)c1`, the figures for the IC50 in series [1] and in series [2] were 8.4 nM and 22.1 nM, respectively. `CCc1ccc2c(c1)CCCN2S(=O)(=O)c1ccc(OCC2CCOCC2)c(CO)c1`: the IC50 in series [1] amounted to 858 nM. Same read-out and setting: to `CCc1ccc2c(c1)CCC(CC)N2S(=O)(=O)c1ccc(OCC2CCOCC2)c(CO)n1` (racemic) belongs 212 nM; to `CCc1ccc2c(c1)CCC(CC)N2S(=O)(=O)c1ccc(OCc2ccncn2)c(CO)c1` (racemic), 300 nM; to `CCc1ccc2c(c1)CCC(CC)N2S(=O)(=O)c1ccc(OCCC(C)(C)O)c(CO)c1` (racemic), 459 nM. As to `CC1CCc2cc(C#N)ccc2N1S(=O)(=O)c1ccc(OCC2CCOCC2)c(CO)c1` (racemic), the IC50 in [1] is 689 nM. On the same count and under the same terms, then `CCc1ccc2c(c1)CCC(CC)N2S(=O)(=O)c1ccc(OCC2CCOCC2)c(S(C)(=O)=O)c1` (racemic), with 1860 nM; and `CCc1ccc2c(c1)CC(C)CN2S(=O)(=O)c1ccc(OCC2CCOCC2)c(CO)c1` (racemic), with 36 nM; and `CCc1ccc2c(c1)CCC(CC)N2S(=O)(=O)c1ccc(C(CO)N2CCOCC2)c(CO)c1` (racemic), with 3120 nM. On to `CCc1ccc2c(c1)CCC(CC)N2S(=O)(=O)c1ccc(OCC2CCOCC2)c(CO)c1` (racemic), for which the Activity entry with HUVEC and with HeLa was “Non-Toxic” throughout. Besides, the IC50 in [1] came out at 11 nM. In the case of `CCc1ccc2c(c1)CCC(CC)N2S(=O)(=O)c1ccc(OC2CN(C(C)=O)C2)c(CO)c1` (racemic), the IC50 in series [1] was determined as 1760 nM.

For `CCc1ccc2c(c1)CCC(C)N2S(=O)(=O)c1ccc(OCC2CCOCC2)c(CO)c1` (racemic), the IC50 in series [1] turned out to be 24 nM. Take `CCc1ccc2c(c1F)CCC(CC)N2S(=O)(=O)c1ccc(OCC2CCOCC2)c(CO)c1` (racemic): in series [1], the IC50 turned out to be 14 nM. On the same count and under the same terms, to `CCC1CCc2cc(C(F)(F)F)ccc2N1S(=O)(=O)c1ccc(OCC2CCOCC2)c(CO)c1` (racemic) belongs 21 nM. Same read-out and setting: to `CCc1ccc2c(c1)C(C)CCN2S(=O)(=O)c1ccc(OCC2CCOCC2)c(CO)c1` (racemic) belongs 655 nM; to `CCc1ccc2c(c1)CCC(CC)N2S(=O)(=O)c1ccc(OC2CCN(S(C)(=O)=O)CC2)c(CO)c1` (racemic), 170 nM; to `CCC1CCc2cc(CC(C)(F)F)ccc2N1S(=O)(=O)c1ccc(OCC2CCOCC2)c(CO)c1` (racemic), 16 nM. Still for that read-out and setting: then `CCc1ccc2c(c1)CCC(CC)N2S(=O)(=O)c1ccc(C(O)CC2CCOCC2)c(CO)c1` (racemic), with 201 nM; and `CCC1CCc2cc(C(C)(C)O)ccc2N1S(=O)(=O)c1ccc(OCC2CCOCC2)c(CO)c1` (racemic), with 1400 nM. Turning to `CCc1ccc2c(c1)CCC(CC)N2S(=O)(=O)c1ccc(OCCS(C)(=O)=O)c(CO)c1` (racemic), the concentration for half-maximal inhibition (IC50) in series [1] was determined as 1430 nM. Same read-out and setting: then `CC1CCc2cc(C3CC3)ccc2N1S(=O)(=O)c1ccc(OCC2CCOCC2)c(CO)c1` (racemic), with 21 nM. Turning to `CCc1ccc2c(c1)CCC(C(F)(F)F)N2S(=O)(=O)c1ccc(OCC2CCOCC2)c(CO)c1` (racemic), the IC50 in series [1] was 23 nM. For `CCC1CCc2cc(CC(F)(F)F)ccc2N1S(=O)(=O)c1ccc(OCC2CCOCC2)c(CO)c1` (racemic), in series [1], the IC50 is 23 nM. Consider `CCc1ccc2c(c1)CCC(CC)N2S(=O)(=O)c1ccc(OCC2CCS(=O)(=O)CC2)c(CO)c1` (racemic), for which the IC50 in series [1] was determined as 146 nM. Still for that read-out and setting: to `C=C(C)c1ccc2c(c1)CCC(CC)N2S(=O)(=O)c1ccc(OCC2CCOCC2)c(CO)c1` (racemic) belongs 12 nM. For the compound `CCc1ccc2c(c1)CCC(C(C)C)N2S(=O)(=O)c1ccc(OCC2CCOCC2)c(CO)c1` (racemic), in series [1], the IC50 worked out at 2 nM. For `CCc1ccc2c(c1)CCC(CO)N2S(=O)(=O)c1ccc(OCC2CCOCC2)c(CO)c1` (racemic), the IC50 in [1] worked out at 3420 nM. Same read-out and setting: to `CCC1CCc2cc(C(C)(C)C)ccc2N1S(=O)(=O)c1ccc(OCC2CCOCC2)c(CO)c1` (racemic) belongs 70 nM; to `CCc1ccc2c(c1)CCC(CC)N2S(=O)(=O)c1ccc(OCC2CCOCC2)c(S(N)(=O)=O)c1` (racemic), 576 nM; to `CCc1cnc2c(c1)CCC(CC)N2S(=O)(=O)c1ccc(OCC2CCOCC2)c(CO)c1` (racemic), 35 nM.

As to `CCc1ccc2c(c1)CCC(CC(C)C)N2S(=O)(=O)c1ccc(OCC2CCOCC2)c(CO)c1` (racemic), the IC50 in series [1] amounted to 21 nM.

For `CCc1ccc2c(c1)CC(CC)CN2S(=O)(=O)c1ccc(OCC2CCOCC2)c(CO)c1` (racemic), the IC50 in series [1] was found to be 32 nM. `C=Cc1ccc2c(c1)CCC(CC)N2S(=O)(=O)c1ccc(OCC2CCOCC2)c(CO)c1` (racemic): the IC50 in series [1] was 36 nM. `O=C([O-])Cc1ccccc1Nc1c(Cl)cccc1Cl.[Na+]` [DICLOFENAC SODIUM]: the outcome in the series on Mus musculus [3], in the series with Mus musculus [6], with Mus musculus [7], with Mus musculus [8], with Mus musculus [10] and with Mus musculus [12] was Active. In addition, the outcome in the series with Mus musculus [15] and in the series on Mus musculus [16] was Active. In addition, the Activity result in series [4] is “Non-Toxic”; in [5] it was “Toxic”; in [9], “Non-Toxic”; in series [11], “Non-Toxic”; in [13], “Non-Toxic”; in series [14], “Non-Toxic”.
